Counter-ions that a name gives are not always drawn.
Legend:
ROR-γt+ Treg cells = conditions: mouse, in vivo
Il4ra^F709 mice = assay: Food allergy model: OVA/SEB oral sensitization and OVA challenge of treated Il4ra^F709 mice (core body temperature); type: in vivo, mouse; conditions: 100 mg/kg i.p. once weekly, OVA/SEB 8 weeks

O=S(=O)(O)Oc1c[nH]c2ccccc12 [I3S, Indoxyl sulfate]
GATA3+ Helios+ gut Treg cells (ROR-γt+ Treg cells; ip, 100 mg/kg): statistically significant decrease
GATA3+ Helios− gut Treg cells (ROR-γt+ Treg cells; ip, 100 mg/kg): statistically significant decrease
GATA3+ gut Treg cells (ROR-γt+ Treg cells; ip, 100 mg/kg): statistically significant decrease
Gut ROR-γt+ Treg cells (expansion) (ROR-γt+ Treg cells; ip, 100 mg/kg): expanded gut ROR-γt^+ Treg cells
ROR-γt+ Helios+ gut Treg cells (ROR-γt+ Treg cells; ip, 100 mg/kg): statistically significant increase
ROR-γt+ Helios− gut Treg cells (ROR-γt+ Treg cells; ip, 100 mg/kg): statistically significant increase
ROR-γt+ gut Treg cells (ROR-γt+ Treg cells; ip, 100 mg/kg): statistically significant increase
Protection against food allergy (Il4ra^F709 mice; OVA challenge): protected against food allergy
Core body temperature changes compared to control (Il4ra^F709 mice; after OVA challenge): statistically significant increase

O=Cc1c[nH]c2ccccc12 [CA, indol-3-carboxaldehyde]
ROR-γt+ staining in CD4+Foxp3+ Treg cells vs sham treatment (ROR-γt+ Treg cells): statistically significant increase
